Test results reported in patent US8143236B2, “Chemoprotective methods” (BioNumerik Pharmaceuticals, Inc., priority 2006, dated 2012).

Tests used:
[1] = test system: sciatic and tibial nerves; test: Histopathological abnormalities of sciatic and tibial nerves caused by paclitaxel; format: in vivo; details: paclitaxel 30 mg/kg i.v. every other day (3 doses); 2,000 mg/kg i.v. immediately after paclitaxel
[2] = test system: paclitaxel-induced decreases in NCV; test: Paclitaxel-induced decrease in nerve conduction velocity (NCV); format: in vivo; details: rats; paclitaxel 6 mg/kg i.v. 5 times every other day; 1,000 mg/kg i.v. immediately after paclitaxel
tubulin = details: in vitro; paclitaxel 6 μM; cited from earlier work
[3] = Japan Phase III Clinical Trial, NSCLC patients receiving paclitaxel and cisplatin; format: in vivo, human
Procedure: (§1) The Japan Phase III Clinical Trial was conducted as a double-blind study because peripheral neuropathy is diagnosed based on subjective symptoms evaluated through clinical interviews, lab tests, and the like. Accordingly, evaluations by both physicians and patients are highly important. […] A placebo was used as control since there is no established therapy or drug for preventing peripheral neuropathy. Because the severity of peripheral neuropathy is evaluated based on patients' reports (i.e., subjective symptoms), the Patient Neurotoxicity Questionnaire (PNQ©) (also known as the Peripheral Neuropathy Questionnaire) was used in primary evaluation. The CIPN-20 questionnaire and the National Cancer Institute-Common Toxicity Criteria (NCI-CTC) were used in secondary evaluation. The incidence and severity of adverse reactions, time to their onset, etc. and the like, were compared between patients treated with Tavocept™ and those given a placebo using the aforementioned methods.
(§2) The Primary Endpoint of the Japan Phase III Clinical Trial described in the present invention was specifically designed to test the hypothesis of whether chemotherapy-induced intermittent peripheral neuropathy would occur. The utilization of physical examination, laboratory tests, and highly detailed patient evaluation, especially utilizing the Patient Neurotoxicity Questionnaire (PNQ©), also known as the Peripheral Neuropathy Questionnaire, was responsible for the identification and characterization of this novel intermittent form of chemotherapy-induced peripheral neuropathy. The results illustrated in FIG. 3 indicate that intermittent peripheral neuropathy was specifically identified and measured in the Japan Phase III Clinical Trial. […] Additionally, the results illustrated in FIG. 4 and FIG. 5 also support the finding that the Formula (I) compound, Tavocept™, can mitigate and/or prevent intermittent peripheral neuropathy. FIG. 4 provides data supporting the merit of utilizing the Patient Neurotoxicity Questionnaire (PNQ©), also known as the Peripheral Neuropathy Questionnaire, and the Generalized Estimating Equation (GEE) statistical method to evaluate intermittent and cumulative peripheral neuropathy.

[4] = test system: chemotherapy-induced peripheral neuropathy; test: as above; format: in vivo, human; details: NSCLC; paclitaxel/Tavocept/cisplatin vs paclitaxel/saline placebo/cisplatin
Procedure: as §1, §2

[5] = test system: paclitaxel-induced thermoparesthesia; test: Paclitaxel-induced thermoparesthesia model; format: in vivo, rats
[6] = after intravenous administration; intracellular glutathione as a cofactor; cited from earlier work
[7] = test system: decreases in NCV by cisplatin; test: Cisplatin-induced decrease in nerve conduction velocity (NCV); format: in vivo; details: rats, cisplatin 2 mg/kg i.p. twice a week for 6 weeks, 1,000 mg/kg i.v. immediately before cisplatin
Procedure: Effects of the Formula (I) compound, Tavocept™ (dimesna; disodium 2,2′-dithio-bis-ethane sulfonate), on decreases in nerve conduction velocity (NCV) induced by cisplatin (2 mg/kg) administered by i.p. injection twice a week for 6 consecutive weeks were evaluated in rats.

[8] = Randomized double-blind placebo-controlled clinical study with paclitaxel: hypersensitivity Adverse Events by infusion time and concentration (FIG. 1); format: in vivo, human; details: for proportion of patients with at least one hypersensitivity Adverse Event: entire treated population: paclitaxel plus either placebo or drug (1:1)
Procedure: FIG. 1 illustrates a comparison of the number of hypersensitivity Adverse Events between groups of patients in whom 2,2′-dithio-bis-ethane sulfonate or a placebo was infused over (1) 30 minutes, (2) 30 and 45 minutes, or (3) 45 minutes. The chemotherapeutic agent administered was paclitaxel. In this Figure, n=#, equals the number of patients.
New methods of administration of agents such as 2,2′-dithio-bis-ethane sulfonate, pharmaceutically-acceptable salts, and/or an analog thereof, have now been discovered in connection with a human clinical study comprising a randomized, double-blind, placebo-controlled study with a 1:1 randomization. Initial blinded study results support the ability of compounds such as 2,2′-dithio-bis-ethane sulfonate to markedly enhance overall safety, decrease overall Adverse Events, decrease hypersensitivity-based Adverse Events, and increase the time of Adverse Event onset, while maintaining at least the same therapeutic indices (e.g. dose level administered in a prescribed specific time schedule, including duration of administration and frequency), and reduction, prevention, mitigation, and/or delay of toxicities associated with the administration of chemotherapeutic agents.
This reduction in the proportion of patients experiencing hypersensitivity reactions overall represents a medically significant difference in such adverse reactions. It represents a reduction in the risk of an observed potentially serious and life-threatening Adverse Event by approximately 29% in the entire study population (i.e., both placebo and 2,2′-dithio-bis-ethane sulfonate populations).
FIG. 1 illustrates a comparison of the number of hypersensitivity Adverse Events between groups of patients in whom 2,2′-dithio-bis-ethane sulfonate or a placebo was infused over (1) 30 minutes, (2) 30 minutes and 45 minutes, or (3) 45 minutes. In addition, the total number of hypersensitivity Adverse Events, the mean time to the first hypersensitivity Adverse Event, and a variety of the types of hypersensitivity Adverse Events were also shown. […] This reduction in the proportion of patients experiencing hypersensitivity Adverse Events overall represents a reduction in the risk of an observed potentially serious and life-threatening Adverse Event by approximately 29% in the entire study population (i.e., both placebo and disodium 2,2′-dithio-bis-ethane sulfonate populations).

[9] = in vivo; cited from earlier work

Compound: O=S(=O)([O-])CCSSCCS(=O)(=O)[O-].[Na+].[Na+] [Tavocept™, disodium 2,2′-dithio-bis-ethane sulfonate]
- increases in the incidence of histopathological abnormalities of the sciatic and tibial nerves [1]: inhibited
- inhibition of paclitaxel-induced decreases in NCV [2]: 92.2%
- concentration at which tubulin polymerization induced by paclitaxel is inhibited (tubulin): 6 mM
- survival of patients with NSCLC ([3]; Tavocept and chemotherapy): medically important increase in survival
- survival time of patients with adenocarcinoma ([3]; Tavocept and chemotherapy): medically important increase in survival time
- chemotherapy-induced anemia, nausea/vomiting, fatigue, and kidney damage ([3]; clinical trial population): medically important reductions
- hematological function (hemoglobin, hematocrit, erythrocyte levels) ([3]; patients with non-small cell lung carcinoma and adenocarcinoma): maintenance or stimulation of hematological function
- reduction in severe (Grade D or E) intermittent or cumulative peripheral neuropathy (FIG. 5) [4]: ~50%
- inhibition rates of thermoparesthesia caused by paclitaxel ([5]; paclitaxel 12 mg/kg i.p. once a week for 5 weeks, 2,000 mg/kg i.v. immediately after paclitaxel): 19.2-34.1%
- maximum inhibition rate of paclitaxel-induced thermoparesthesia ([5]; rats, paclitaxel 6 mg/kg i.v. 5 times every other day, 1,000 mg/kg): 41.7%
- inhibition of paclitaxel-induced thermoparesthesia ([5]; rats, paclitaxel 6 mg/kg i.v. 5 times every other day, 1,000 mg/kg i.v. immediately after paclitaxel): 27.5-59.2%
- maximum inhibition rate of paclitaxel-induced thermoparesthesia ([5]; rats, paclitaxel 6 mg/kg i.v. 5 times every other day, 2,000 mg/kg): 41.5%
- uptake and metabolism [6]: rapidly taken up in the kidney and metabolized into mesna
- inhibition rate of decreases in NCV by cisplatin ([7]; 5 weeks after starting cisplatin): 53.6%
- inhibition rate of decreases in NCV by cisplatin ([7]; 6 weeks after starting cisplatin): 64.7%
- proportion of patients with at least one hypersensitivity Adverse Event ([8]; 100 mg/mL over 45 minutes): approximately 30%
- proportion of patients with at least one hypersensitivity Adverse Event ([8]; 200 mg/mL over 30 minutes): approximately 42%
- reduction in the overall proportion of patients experiencing hypersensitivity reactions ([8]; 45 min 100 mg/mL vs 30 min 200 mg/mL, absolute difference): approximately 12%
- reduction in hypersensitivity Adverse Events in the drug treatment population ([8]; 45 min 100 mg/mL vs 30 min 200 mg/mL, assumes no placebo effect): ≤ 57%
- reduction in the risk of hypersensitivity Adverse Event in the entire study population ([8]; 45 min 100 mg/mL vs 30 min 200 mg/mL, placebo and drug populations together): approximately 29%

Compound: N.N.[Cl][Pt][Cl] [cisplatin]
- cumulative dose above which cisplatin-induced neuropathy usually occurs [9]: exceeds 300 mg/m^2
